# In the supplement of paper PMC12463676, “Small-molecule dissolution of stress granules by redox modulation benefits ALS models” (Nature Chemical Biology, 2025):
# Compound: O=[As]([O-])(O)O.[K+] [potassium arsenate]
# Assay: thermal stability z-score vs DMSO; higher = more thermally stabilized by treatment
# Details: HeLa; arsenate concentration 1 mM
# Procedure: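 Cellular thermal proteome profiling in HeLa cells treated with 1 mM arsenate for 1 h (DMSO pretreatment), heated to ten temperatures (37-66.3 °C). Soluble protein was quantified by TMT mass spectrometry relative to DMSO controls; the thermal stability score was transformed to a z-score; mean of n = 3 experiments.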
# 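Further: each temperature applied for 3 min, abundance score taken as mean log2 fold change at the two lowest temperatures, z-score obtained by mean subtraction and division by SD.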
# Chain of UniProt Q5XPI4 (Q5XPI4 whole entry): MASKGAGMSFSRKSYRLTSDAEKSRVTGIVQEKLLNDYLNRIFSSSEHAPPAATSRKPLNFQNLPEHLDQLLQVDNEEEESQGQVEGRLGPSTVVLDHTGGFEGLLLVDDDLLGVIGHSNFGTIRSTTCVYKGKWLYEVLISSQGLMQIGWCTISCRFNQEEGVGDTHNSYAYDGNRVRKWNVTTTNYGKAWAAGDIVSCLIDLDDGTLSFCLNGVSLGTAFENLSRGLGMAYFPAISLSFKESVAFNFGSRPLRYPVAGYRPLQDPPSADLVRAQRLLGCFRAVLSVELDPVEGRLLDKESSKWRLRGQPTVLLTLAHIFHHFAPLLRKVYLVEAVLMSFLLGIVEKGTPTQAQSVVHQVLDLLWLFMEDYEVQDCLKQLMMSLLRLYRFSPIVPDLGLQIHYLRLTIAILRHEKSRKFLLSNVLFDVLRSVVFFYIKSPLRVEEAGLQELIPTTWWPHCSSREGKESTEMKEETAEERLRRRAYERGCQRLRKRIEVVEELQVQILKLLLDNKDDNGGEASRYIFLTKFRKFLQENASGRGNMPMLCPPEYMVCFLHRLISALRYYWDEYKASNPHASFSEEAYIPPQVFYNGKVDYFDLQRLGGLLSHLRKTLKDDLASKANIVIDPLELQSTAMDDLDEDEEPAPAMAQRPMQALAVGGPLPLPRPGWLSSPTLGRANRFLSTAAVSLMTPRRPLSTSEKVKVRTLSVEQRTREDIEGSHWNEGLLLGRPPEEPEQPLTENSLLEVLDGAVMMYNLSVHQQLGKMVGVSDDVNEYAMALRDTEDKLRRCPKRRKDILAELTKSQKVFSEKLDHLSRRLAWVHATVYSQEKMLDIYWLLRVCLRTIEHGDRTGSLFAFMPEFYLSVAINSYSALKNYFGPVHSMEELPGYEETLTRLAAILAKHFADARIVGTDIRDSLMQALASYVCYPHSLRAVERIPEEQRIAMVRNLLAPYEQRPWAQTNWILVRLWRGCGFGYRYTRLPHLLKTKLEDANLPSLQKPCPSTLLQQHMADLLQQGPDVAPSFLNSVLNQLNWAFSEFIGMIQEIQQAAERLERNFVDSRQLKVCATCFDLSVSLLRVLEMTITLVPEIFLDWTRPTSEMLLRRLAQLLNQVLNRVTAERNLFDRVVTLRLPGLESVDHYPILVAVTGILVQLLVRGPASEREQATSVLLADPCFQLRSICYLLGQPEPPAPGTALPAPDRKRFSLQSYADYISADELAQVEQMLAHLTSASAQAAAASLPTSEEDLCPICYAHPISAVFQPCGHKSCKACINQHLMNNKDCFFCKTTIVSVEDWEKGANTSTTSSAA
# Chain of UniProt O75794 (O75794 whole entry): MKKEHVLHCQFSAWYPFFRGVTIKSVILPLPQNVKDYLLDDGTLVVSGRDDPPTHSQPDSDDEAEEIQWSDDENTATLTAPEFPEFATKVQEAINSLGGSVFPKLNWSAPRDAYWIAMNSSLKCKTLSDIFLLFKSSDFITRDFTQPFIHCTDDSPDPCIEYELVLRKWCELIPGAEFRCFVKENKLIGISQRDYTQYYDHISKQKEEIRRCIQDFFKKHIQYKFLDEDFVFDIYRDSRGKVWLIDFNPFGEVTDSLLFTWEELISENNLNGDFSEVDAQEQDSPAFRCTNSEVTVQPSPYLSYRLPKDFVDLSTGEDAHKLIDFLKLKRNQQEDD
# Chain of UniProt Q02880 (Q02880 whole entry): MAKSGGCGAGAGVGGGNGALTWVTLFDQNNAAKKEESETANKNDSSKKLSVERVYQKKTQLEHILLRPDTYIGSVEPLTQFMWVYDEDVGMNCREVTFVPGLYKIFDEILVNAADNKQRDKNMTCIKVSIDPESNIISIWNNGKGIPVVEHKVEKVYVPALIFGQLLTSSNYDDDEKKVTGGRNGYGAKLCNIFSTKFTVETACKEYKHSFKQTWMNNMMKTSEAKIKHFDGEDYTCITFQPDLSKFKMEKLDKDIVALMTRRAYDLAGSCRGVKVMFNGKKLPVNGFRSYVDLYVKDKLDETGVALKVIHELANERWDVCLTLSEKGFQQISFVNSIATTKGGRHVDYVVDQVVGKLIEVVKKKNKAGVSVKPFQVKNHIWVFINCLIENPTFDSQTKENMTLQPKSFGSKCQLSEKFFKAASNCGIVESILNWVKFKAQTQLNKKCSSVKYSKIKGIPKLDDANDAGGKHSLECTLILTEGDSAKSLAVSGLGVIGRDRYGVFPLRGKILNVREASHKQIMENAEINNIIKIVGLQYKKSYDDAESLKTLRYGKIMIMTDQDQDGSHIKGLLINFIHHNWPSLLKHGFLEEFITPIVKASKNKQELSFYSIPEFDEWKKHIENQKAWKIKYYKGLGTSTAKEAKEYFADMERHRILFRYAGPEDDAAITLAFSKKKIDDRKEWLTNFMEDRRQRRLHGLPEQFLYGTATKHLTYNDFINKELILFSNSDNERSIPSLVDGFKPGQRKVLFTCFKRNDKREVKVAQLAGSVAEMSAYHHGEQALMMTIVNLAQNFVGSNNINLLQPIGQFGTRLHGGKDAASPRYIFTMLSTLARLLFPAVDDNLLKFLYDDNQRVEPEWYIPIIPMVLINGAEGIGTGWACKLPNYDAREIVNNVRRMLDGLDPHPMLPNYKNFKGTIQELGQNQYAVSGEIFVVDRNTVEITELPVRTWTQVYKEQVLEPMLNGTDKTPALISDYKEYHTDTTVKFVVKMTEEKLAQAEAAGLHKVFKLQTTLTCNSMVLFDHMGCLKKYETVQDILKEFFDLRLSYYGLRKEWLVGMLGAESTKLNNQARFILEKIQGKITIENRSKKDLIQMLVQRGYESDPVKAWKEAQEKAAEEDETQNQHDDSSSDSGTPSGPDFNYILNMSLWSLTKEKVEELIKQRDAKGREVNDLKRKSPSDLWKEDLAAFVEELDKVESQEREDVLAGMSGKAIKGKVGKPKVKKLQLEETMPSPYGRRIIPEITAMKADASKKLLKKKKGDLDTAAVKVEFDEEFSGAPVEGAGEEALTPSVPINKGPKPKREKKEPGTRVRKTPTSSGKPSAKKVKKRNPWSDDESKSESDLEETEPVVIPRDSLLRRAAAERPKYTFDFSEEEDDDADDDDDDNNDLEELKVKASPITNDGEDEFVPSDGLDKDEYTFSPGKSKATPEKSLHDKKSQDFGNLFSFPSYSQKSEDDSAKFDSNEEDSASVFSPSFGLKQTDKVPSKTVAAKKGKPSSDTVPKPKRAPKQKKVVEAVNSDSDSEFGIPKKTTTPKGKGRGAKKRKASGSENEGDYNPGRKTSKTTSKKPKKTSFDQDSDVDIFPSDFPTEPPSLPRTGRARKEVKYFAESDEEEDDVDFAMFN
# Chain of UniProt Q8TE77 (Q8TE77 whole entry): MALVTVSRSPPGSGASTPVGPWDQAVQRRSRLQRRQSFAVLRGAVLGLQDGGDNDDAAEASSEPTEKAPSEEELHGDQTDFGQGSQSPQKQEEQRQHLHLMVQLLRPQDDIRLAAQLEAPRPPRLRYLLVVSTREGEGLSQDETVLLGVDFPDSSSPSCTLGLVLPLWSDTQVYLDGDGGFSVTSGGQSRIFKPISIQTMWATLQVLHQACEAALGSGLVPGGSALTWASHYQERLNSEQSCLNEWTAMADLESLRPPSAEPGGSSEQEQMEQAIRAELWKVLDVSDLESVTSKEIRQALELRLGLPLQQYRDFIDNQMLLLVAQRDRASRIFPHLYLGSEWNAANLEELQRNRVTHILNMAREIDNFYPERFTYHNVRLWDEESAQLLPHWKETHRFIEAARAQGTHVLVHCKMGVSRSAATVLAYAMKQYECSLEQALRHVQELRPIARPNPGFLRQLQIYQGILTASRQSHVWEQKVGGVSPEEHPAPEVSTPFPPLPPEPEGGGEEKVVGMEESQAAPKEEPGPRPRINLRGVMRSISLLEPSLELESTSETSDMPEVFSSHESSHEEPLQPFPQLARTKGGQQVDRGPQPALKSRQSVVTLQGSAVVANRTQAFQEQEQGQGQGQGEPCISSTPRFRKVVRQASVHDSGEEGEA
# Chain of UniProt Q96FJ0 (Q96FJ0 whole entry): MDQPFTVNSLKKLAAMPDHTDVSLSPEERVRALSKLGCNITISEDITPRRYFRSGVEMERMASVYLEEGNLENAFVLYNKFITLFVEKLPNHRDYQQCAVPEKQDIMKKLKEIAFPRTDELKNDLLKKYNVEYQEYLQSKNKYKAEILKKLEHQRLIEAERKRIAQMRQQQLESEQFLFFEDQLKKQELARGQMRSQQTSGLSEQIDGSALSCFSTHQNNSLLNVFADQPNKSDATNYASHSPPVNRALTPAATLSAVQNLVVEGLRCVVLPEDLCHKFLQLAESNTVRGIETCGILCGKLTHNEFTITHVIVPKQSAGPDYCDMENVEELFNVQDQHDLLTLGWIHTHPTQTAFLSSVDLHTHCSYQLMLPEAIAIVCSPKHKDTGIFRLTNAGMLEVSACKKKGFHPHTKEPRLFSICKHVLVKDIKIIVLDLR
# Chain of UniProt A5PLL7 (A5PLL7 whole entry): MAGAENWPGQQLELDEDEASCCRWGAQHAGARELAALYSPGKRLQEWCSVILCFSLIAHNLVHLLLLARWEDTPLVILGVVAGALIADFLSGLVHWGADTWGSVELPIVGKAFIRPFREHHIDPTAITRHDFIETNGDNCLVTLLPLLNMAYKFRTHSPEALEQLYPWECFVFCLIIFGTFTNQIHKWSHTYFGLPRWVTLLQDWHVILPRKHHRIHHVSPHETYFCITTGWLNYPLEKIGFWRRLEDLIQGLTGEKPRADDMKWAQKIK
# Chain of UniProt Q9UK76 (Q9UK76 whole entry): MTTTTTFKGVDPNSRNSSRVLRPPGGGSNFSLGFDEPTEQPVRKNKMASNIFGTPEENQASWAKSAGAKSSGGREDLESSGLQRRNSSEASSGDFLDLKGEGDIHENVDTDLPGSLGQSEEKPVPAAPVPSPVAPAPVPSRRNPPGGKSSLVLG
# Chain of UniProt Q13445 (Q13445 whole entry): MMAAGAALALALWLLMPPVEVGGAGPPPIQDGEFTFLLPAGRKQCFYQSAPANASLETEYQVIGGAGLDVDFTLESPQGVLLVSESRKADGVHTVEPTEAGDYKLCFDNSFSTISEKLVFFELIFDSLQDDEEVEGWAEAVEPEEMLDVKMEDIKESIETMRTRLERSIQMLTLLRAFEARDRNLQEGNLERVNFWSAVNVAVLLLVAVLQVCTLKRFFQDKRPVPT
row,Target,thermal stability z-score
1,BCS1L (UniProt Q9Y276),0.3
2,SNRPB2 (UniProt P08579),-0.319
3,PPP6C (UniProt O00743),-0.409
4,RNF123 (UniProt Q5XPI4),-0.445
5,BIRC6 (UniProt Q9NR09),0.194
6,NUP205 (UniProt Q92621),1.05
7,UBA6,0.0818
8,CDC123 (UniProt O75794),3.29
9,FBXO3 (UniProt Q9UK99),-1.06
10,EMD (UniProt P50402),-0.405
11,TBCEL (UniProt Q5QJ74),0.0212
12,CUL2 (UniProt Q13617),-0.256
13,AXL (UniProt P30530),0.0984
14,RBM3 (UniProt P98179),0.167
15,PRKRA (UniProt O75569),-0.312
16,NCDN (UniProt Q9UBB6),0.288
17,FKBP2 (UniProt P26885),0.177
18,DNMT1 (UniProt P26358),-0.517
19,OSTF1 (UniProt Q92882),0.00115
20,ANLN (UniProt Q9NQW6),-1.45
21,ETFDH (UniProt Q16134),-0.886
22,TNS2 (UniProt Q63HR2),-0.101
23,FAM122B (UniProt Q7Z309),-0.217
24,DCTN3 (UniProt O75935),0.72

row,Target,thermal stability z-score
1,SNCA (UniProt P37840),-0.263
2,STAMBPL1 (UniProt Q96FJ0),1.05
3,TOP2B (UniProt Q02880),-0.788
4,LSM14B (UniProt Q9BX40),0.218
5,CCDC90B (UniProt Q9GZT6),0.136
6,LONP2 (UniProt Q86WA8),0.393
7,NUP43 (UniProt Q8NFH3),1.58
8,GEMIN4 (UniProt P57678),-0.0793
9,DCUN1D1 (UniProt Q96GG9),0.0368
10,RPS16 (UniProt P62249),-0.329
11,IKBIP (UniProt Q70UQ0),-0.0459
12,SLC25A13 (UniProt Q9UJS0),-0.312
13,TMED1 (UniProt Q13445),0.967
14,CDC16 (UniProt Q13042),-0.551
15,ANAPC10 (UniProt Q9UM13),-0.183
16,NAGLU (UniProt P54802),0.253
17,VPS33A (UniProt Q96AX1),-0.027
18,PRPF39 (UniProt Q86UA1),-0.0696
19,RPL26L1 (UniProt Q9UNX3),0.434
20,ILVBL (UniProt A1L0T0),0.772
21,UCK2 (UniProt Q9BZX2),0.093
22,WDFY1 (UniProt Q8IWB7),-1.85
23,SSH3 (UniProt Q8TE77),-0.0687
24,MAP4K4 (UniProt O95819),0.303

row,Target,thermal stability z-score
1,GAL (UniProt P22466),-0.0332
2,RHOBTB3 (UniProt O94955),-0.0881
3,IRF3 (UniProt Q14653),1.13
4,POP7 (UniProt O75817),0.592
5,TMEM189 (UniProt A5PLL7),-0.167
6,ELP4 (UniProt Q96EB1),0.742
7,SMC5 (UniProt Q8IY18),1.83
8,PPP2R1B (UniProt P30154),0.107
9,CAPZA1 (UniProt P52907),0.38
10,HN1 (UniProt Q9UK76),0.518
11,MDC1 (UniProt Q14676),-0.363
12,PRPS2 (UniProt P11908),-1.24
13,SEC63 (UniProt Q9UGP8),-0.767
14,BPNT1 (UniProt O95861),-1.66
15,SPR (UniProt P35270),1.36
16,NAA25 (UniProt Q14CX7),-0.0259
17,FAS (UniProt P25445),0.539
18,NRBP1 (UniProt Q9UHY1),0.23
19,TARS (UniProt P26639),0.853
20,CUEDC2 (UniProt Q9H467),0.0094
21,PDS5A (UniProt Q29RF7),-0.428
22,MFN1 (UniProt Q8IWA4),0.157
23,CIAPIN1 (UniProt Q6FI81),0.186
24,COQ9 (UniProt O75208),1.61

# Compound: NC(=O)CCCCC1CCSS1 [lipoamide]
# Assay: as above
# Details: HeLa; lipoamide concentration 100 µM; arsenate co-treatment: 1 mM arsenate 1 h
# Procedure: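 Cellular thermal proteome profiling in HeLa cells. Cells were treated with 100 µM lipoamide for 1 h, with or without 1 mM arsenate for a further 1 h, then heated to ten temperatures (37-66.3 °C), and soluble protein was quantified by TMT mass spectrometry relative to 0.1% DMSO controls. The thermal stability score (sum of log2 fold changes minus the abundance score) was transformed to a z-score; mean of n = 3 experiments.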
row,Target,thermal stability z-score
1,BCS1L (UniProt Q9Y276),0.472
2,SNRPB2 (UniProt P08579),0.953
3,PPP6C (UniProt O00743),0.512
4,RNF123 (UniProt Q5XPI4),-0.194
5,BIRC6 (UniProt Q9NR09),-0.51
6,NUP205 (UniProt Q92621),-0.769
7,UBA6,-0.423
8,CDC123 (UniProt O75794),0.8
9,FBXO3 (UniProt Q9UK99),-0.185
10,EMD (UniProt P50402),-0.75
11,TBCEL (UniProt Q5QJ74),-0.202
12,CUL2 (UniProt Q13617),0.23
13,AXL (UniProt P30530),0.0102
14,RBM3 (UniProt P98179),0.0805
15,PRKRA (UniProt O75569),-0.115
16,NCDN (UniProt Q9UBB6),0.164
17,FKBP2 (UniProt P26885),-3.2
18,DNMT1 (UniProt P26358),-0.115
19,OSTF1 (UniProt Q92882),-0.217
20,ANLN (UniProt Q9NQW6),0.066
21,ETFDH (UniProt Q16134),0.283
22,TNS2 (UniProt Q63HR2),-0.0104
23,FAM122B (UniProt Q7Z309),-0.0455
24,DCTN3 (UniProt O75935),0.0144

row,Target,thermal stability z-score
1,SNCA (UniProt P37840),0.553
2,STAMBPL1 (UniProt Q96FJ0),0.417
3,TOP2B (UniProt Q02880),0.61
4,LSM14B (UniProt Q9BX40),-0.354
5,CCDC90B (UniProt Q9GZT6),0.364
6,LONP2 (UniProt Q86WA8),-0.55
7,NUP43 (UniProt Q8NFH3),2.43
8,GEMIN4 (UniProt P57678),-0.347
9,DCUN1D1 (UniProt Q96GG9),-0.437
10,RPS16 (UniProt P62249),1.04
11,IKBIP (UniProt Q70UQ0),-3.01
12,SLC25A13 (UniProt Q9UJS0),-0.445
13,TMED1 (UniProt Q13445),0.206
14,CDC16 (UniProt Q13042),0.159
15,ANAPC10 (UniProt Q9UM13),0.0276
16,NAGLU (UniProt P54802),0.208
17,VPS33A (UniProt Q96AX1),-0.0394
18,PRPF39 (UniProt Q86UA1),-0.0835
19,RPL26L1 (UniProt Q9UNX3),0.252
20,ILVBL (UniProt A1L0T0),1.34
21,UCK2 (UniProt Q9BZX2),-0.0152
22,WDFY1 (UniProt Q8IWB7),-0.112
23,SSH3 (UniProt Q8TE77),0.153
24,MAP4K4 (UniProt O95819),-0.599

row,Target,thermal stability z-score
1,GAL (UniProt P22466),0.135
2,RHOBTB3 (UniProt O94955),0.00346
3,IRF3 (UniProt Q14653),0.883
4,POP7 (UniProt O75817),-0.211
5,TMEM189 (UniProt A5PLL7),-0.772
6,ELP4 (UniProt Q96EB1),-0.492
7,SMC5 (UniProt Q8IY18),0.427
8,PPP2R1B (UniProt P30154),0.0372
9,CAPZA1 (UniProt P52907),-0.236
10,HN1 (UniProt Q9UK76),1.68
11,MDC1 (UniProt Q14676),0.374
12,PRPS2 (UniProt P11908),0.114
13,SEC63 (UniProt Q9UGP8),-1.11
14,BPNT1 (UniProt O95861),-0.0659
15,SPR (UniProt P35270),1.28
16,NAA25 (UniProt Q14CX7),0.177
17,FAS (UniProt P25445),0.392
18,NRBP1 (UniProt Q9UHY1),-0.349
19,TARS (UniProt P26639),0.0423
20,CUEDC2 (UniProt Q9H467),-0.0601
21,PDS5A (UniProt Q29RF7),0.543
22,MFN1 (UniProt Q8IWA4),-0.522
23,CIAPIN1 (UniProt Q6FI81),0.671
24,COQ9 (UniProt O75208),-0.364

# Same assay, conditions: HeLa; lipoamide concentration 100 µM; arsenate co-treatment: none
row,Target,thermal stability z-score
1,BCS1L (UniProt Q9Y276),0.86
2,SNRPB2 (UniProt P08579),0.704
3,PPP6C (UniProt O00743),0.089
4,RNF123 (UniProt Q5XPI4),-0.0174
5,BIRC6 (UniProt Q9NR09),-0.149
6,NUP205 (UniProt Q92621),-0.572
7,UBA6,-0.209
8,CDC123 (UniProt O75794),-0.214
9,FBXO3 (UniProt Q9UK99),-0.251
10,EMD (UniProt P50402),-0.633
11,TBCEL (UniProt Q5QJ74),-0.0108
12,CUL2 (UniProt Q13617),0.0777
13,AXL (UniProt P30530),0.0513
14,RBM3 (UniProt P98179),-0.138
15,PRKRA (UniProt O75569),-0.0608
16,NCDN (UniProt Q9UBB6),-0.266
17,FKBP2 (UniProt P26885),-3.35
18,DNMT1 (UniProt P26358),0.0323
19,OSTF1 (UniProt Q92882),0.551
20,ANLN (UniProt Q9NQW6),0.0787
21,ETFDH (UniProt Q16134),0.37
22,TNS2 (UniProt Q63HR2),-0.0152
23,FAM122B (UniProt Q7Z309),-0.144
24,DCTN3 (UniProt O75935),0.489

row,Target,thermal stability z-score
1,SNCA (UniProt P37840),0.198
2,STAMBPL1 (UniProt Q96FJ0),0.511
3,TOP2B (UniProt Q02880),0.212
4,LSM14B (UniProt Q9BX40),0.0171
5,CCDC90B (UniProt Q9GZT6),0.229
6,LONP2 (UniProt Q86WA8),-0.13
7,NUP43 (UniProt Q8NFH3),0.779
8,GEMIN4 (UniProt P57678),-0.228
9,DCUN1D1 (UniProt Q96GG9),-0.535
10,RPS16 (UniProt P62249),0.549
11,IKBIP (UniProt Q70UQ0),-2.3
12,SLC25A13 (UniProt Q9UJS0),-0.77
13,TMED1 (UniProt Q13445),0.729
14,CDC16 (UniProt Q13042),0.0509
15,ANAPC10 (UniProt Q9UM13),-0.149
16,NAGLU (UniProt P54802),-0.281
17,VPS33A (UniProt Q96AX1),-0.0312
18,PRPF39 (UniProt Q86UA1),-0.137
19,RPL26L1 (UniProt Q9UNX3),0.884
20,ILVBL (UniProt A1L0T0),0.509
21,UCK2 (UniProt Q9BZX2),0.141
22,WDFY1 (UniProt Q8IWB7),-0.423
23,SSH3 (UniProt Q8TE77),-0.0576
24,MAP4K4 (UniProt O95819),-0.0959

row,Target,thermal stability z-score
1,GAL (UniProt P22466),-0.122
2,RHOBTB3 (UniProt O94955),0.217
3,IRF3 (UniProt Q14653),-0.106
4,POP7 (UniProt O75817),0.214
5,TMEM189 (UniProt A5PLL7),-0.595
6,ELP4 (UniProt Q96EB1),0.609
7,SMC5 (UniProt Q8IY18),-0.175
8,PPP2R1B (UniProt P30154),-0.0931
9,CAPZA1 (UniProt P52907),0.183
10,HN1 (UniProt Q9UK76),1.13
11,MDC1 (UniProt Q14676),0.00253
12,PRPS2 (UniProt P11908),-0.199
13,SEC63 (UniProt Q9UGP8),-0.484
14,BPNT1 (UniProt O95861),-0.197
15,SPR (UniProt P35270),0.634
16,NAA25 (UniProt Q14CX7),0.0532
17,FAS (UniProt P25445),0.673
18,NRBP1 (UniProt Q9UHY1),-0.151
19,TARS (UniProt P26639),-0.0639
20,CUEDC2 (UniProt Q9H467),-0.131
21,PDS5A (UniProt Q29RF7),0.408
22,MFN1 (UniProt Q8IWA4),-0.191
23,CIAPIN1 (UniProt Q6FI81),0.397
24,COQ9 (UniProt O75208),-0.531
